These results are taken from patent US20240199587A1, “HETEROCYCLIC COMPOUNDS” (Hoffmann-La Roche Inc., priority 2021, published 2024).

What is called IC50 is the concentration at which inhibition is half-maximal. A high value points to lower potency.

Each structure is given as a SMILES string.

The target of the test is T1, MAGL (Homo sapiens, UniProt Q99685).
T1 sequence (Q99685 1-303): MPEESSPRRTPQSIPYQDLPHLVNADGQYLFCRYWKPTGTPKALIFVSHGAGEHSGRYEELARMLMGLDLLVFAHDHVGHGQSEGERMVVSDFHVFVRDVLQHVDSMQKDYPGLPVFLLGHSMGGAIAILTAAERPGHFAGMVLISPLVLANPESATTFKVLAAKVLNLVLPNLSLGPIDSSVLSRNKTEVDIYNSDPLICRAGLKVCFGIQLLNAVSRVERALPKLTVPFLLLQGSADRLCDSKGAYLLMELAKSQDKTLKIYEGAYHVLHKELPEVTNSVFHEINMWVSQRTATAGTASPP
Description: 2-AG assay (MAGL inhibitory activity, hydrolysis of 2-arachidonoylglycerol to arachidonic acid followed by mass spectrometry). The format is biochemical. To be noted: 8 μM 2-arachidonoylglycerol, 15 min pre-incubation, 30 min incubation at RT, RapidFire MS readout. In outline: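 Human MAGL ([…] final) pre-incubated 15 min at RT with compound in 50 mM TRIS, 1 mM EDTA, 0.01% Tween-20, 2.5% DMSO; 8 μM 2-AG then added for 30 min at RT. Acetonitrile quench with d8-arachidonic acid; arachidonic acid measured by RapidFire SPE–MS/MS, activity from arachidonic acid/d8 ratio.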
On to `O=C(N1CC2(CC(n3cnc(C4CC4)n3)C2)C1)N1CC2(C1)CN(S(=O)(=O)C13CC(C(F)(F)F)(C1)C3)C2` [Example 474, [6-(3-cyclopropyl-1,2,4-triazol-1-yl)-2-azaspiro[3.3]heptan-2-yl]-[2-[[3-(trifluoromethyl)-1-bicyclo[1.1.1]pentanyl]sulfonyl]-2,6-diazaspiro[3.3]heptan-6-yl]methanone], for which the IC50 came to 24.5 nM.

Regarding `CS(=O)(=O)c1cc(F)ccc1CC1CC2(C1)CN(C(=O)N1CC3(CC(n4cnc(C5CC5)n4)C3)C1)C2` [Example 475, [6-(3-cyclopropyl-1,2,4-triazol-1-yl)-2-azaspiro[3.3]heptan-2-yl]-[6-[(4-fluoro-2-methylsulfonyl-phenyl)methyl]-2-azaspiro[3.3]heptan-2-yl]methanone], the IC50 came out at 0.44 nM.

`O=C(N1CC(c2ccc(N3CC[C@H](C(F)(F)F)C3)nc2)C1)N1CC2(CC(n3cnc(C4CC4)n3)C2)C1` [Example 476, [6-(3-cyclopropyl-1,2,4-triazol-1-yl)-2-azaspiro[3.3]heptan-2-yl]-[3-[6-[(3S)-3-(trifluoromethyl)pyrrolidin-1-yl]-3-pyridyl]azetidin-1-yl]methanone] displayed an IC50 of 0.56 nM.

With `O=C(N1CC(c2ccc(NC3(C(F)(F)F)CC3)nc2)C1)N1CC2(CC(n3cnc(C4CC4)n3)C2)C1` [Example 477, [6-(3-cyclopropyl-1,2,4-triazol-1-yl)-2-azaspiro[3.3]heptan-2-yl]-[3-[6-[[1-(trifluoromethyl)cyclopropyl]amino]-3-pyridyl]azetidin-1-yl]methanone], half-maximal inhibition (IC50) required 0.97 nM.

In turn, `O=C(N1CC(c2ccc(NCC3(C(F)(F)F)CC3)cn2)C1)N1CC2(CC(n3cnc(C4CC4)n3)C2)C1` [Example 478, [6-(3-cyclopropyl-1,2,4-triazol-1-yl)-2-azaspiro[3.3]heptan-2-yl]-[3-[5-[[1-(trifluoromethyl)cyclopropyl]methylamino]-2-pyridyl]azetidin-1-yl]methanone] displayed an IC50 of 0.74 nM.

Turning to `O=C(N1CC(c2cnc(N3CC(C(F)(F)F)C3)nc2)C1)N1CC2(CC(n3cnc(C4CC4)n3)C2)C1` [Example 479, [6-(3-cyclopropyl-1,2,4-triazol-1-yl)-2-azaspiro[3.3]heptan-2-yl]-[3-[2-[3-(trifluoromethyl)azetidin-1-yl]pyrimidin-5-yl]azetidin-1-yl]methanone], the IC50 amounted to 7.5 nM. This IC50 is about 10-fold higher than that of the compound before.

`O=C(N1CC(c2cnc(N3CC[C@H](C(F)(F)F)C3)nc2)C1)N1CC2(CC(n3cnc(C4CC4)n3)C2)C1` [Example 481, [6-(3-cyclopropyl-1,2,4-triazol-1-yl)-2-azaspiro[3.3]heptan-2-yl]-[3-[2-[(3S)-3-(trifluoromethyl)pyrrolidin-1-yl]pyrimidin-5-yl]azetidin-1-yl]methanone] had an IC50 of 4.07 nM.

`O=C(N1CC(c2cnc(N3CC[C@@H](C(F)(F)F)C3)nc2)C1)N1CC2(CC(n3cnc(C4CC4)n3)C2)C1` [Example 482, [6-(3-cyclopropyl-1,2,4-triazol-1-yl)-2-azaspiro[3.3]heptan-2-yl]-[3-[2-[(3R)-3-(trifluoromethyl)pyrrolidin-1-yl]pyrimidin-5-yl]azetidin-1-yl]methanone] showed an IC50 of 1.26 nM.

Turning to `CS(=O)(=O)c1ccc(CC2CC3(C2)CN(C(=O)N2CC4(CC(n5cnc(C6CC6)n5)C4)C2)C3)c(F)c1` [Example 483, [6-(3-cyclopropyl-1,2,4-triazol-1-yl)-2-azaspiro[3.3]heptan-2-yl]-[6-[(2-fluoro-4-methylsulfonyl-phenyl)methyl]-2-azaspiro[3.3]heptan-2-yl]methanone], the IC50 was 0.16 nM. Against the preceding compound, the IC50 is about 7.9-fold lower.

As to `O=C(N1CC2(CCN(S(=O)(=O)C34CC(C(F)(F)F)(C3)C4)CC2)C1)N1CC2(CC(n3cnc(C4CC4)n3)C2)C1` [Example 484, [6-(3-cyclopropyl-1,2,4-triazol-1-yl)-2-azaspiro[3.3]heptan-2-yl]-[7-[[3-(trifluoromethyl)-1-bicyclo[1.1.1]pentanyl]sulfonyl]-2,7-diazaspiro[3.5]nonan-2-yl]methanone], the 50% inhibitory concentration (IC50) is 19.5 nM.

`CS(=O)(=O)c1cccc(CN2CCC3(CC2)CN(C(=O)N2CC4(CC(n5cnc(C6CC6)n5)C4)C2)C3)c1` [Example 485, [6-(3-cyclopropyl-1,2,4-triazol-1-yl)-2-azaspiro[3.3]heptan-2-yl]-[7-[(3-methylsulfonylphenyl)methyl]-2,7-diazaspiro[3.5]nonan-2-yl]methanone] had an IC50 of 26.7 nM.

For the compound `CS(=O)(=O)c1ccc(CN2CCC3(CC2)CN(C(=O)N2CC4(CC(n5cnc(C6CC6)n5)C4)C2)C3)cc1` [Example 486, [6-(3-cyclopropyl-1,2,4-triazol-1-yl)-2-azaspiro[3.3]heptan-2-yl]-[7-[(4-methylsulfonylphenyl)methyl]-2,7-diazaspiro[3.5]nonan-2-yl]methanone], the IC50 worked out at 14.6 nM.

`O=C(N1CC2(CC(Cc3cnc(C(F)(F)F)cn3)C2)C1)N1CC2(CC(n3cnc(C4(O)CC4)n3)C2)C1` [Example 487, [6-[3-(1-hydroxycyclopropyl)-1,2,4-triazol-1-yl]-2-azaspiro[3.3]heptan-2-yl]-[6-[[5-(trifluoromethyl)pyrazin-2-yl]methyl]-2-azaspiro[3.3]heptan-2-yl]methanone] came in with an IC50 of 3.93 nM.

For the compound `CS(=O)(=O)c1ccc(CC2CC3(C2)CN(C(=O)N2CC4(CC(n5cnc(C6CC6)n5)C4)C2)C3)nc1` [Example 488, [6-(3-cyclopropyl-1,2,4-triazol-1-yl)-2-azaspiro[3.3]heptan-2-yl]-[6-[(5-methylsulfonyl-2-pyridyl)methyl]-2-azaspiro[3.3]heptan-2-yl]methanone], the IC50 was found to be 4.41 nM.

As to `CS(=O)(=O)c1cncc(CC2CC3(C2)CN(C(=O)N2CC4(CC(n5cnc(C6CC6)n5)C4)C2)C3)c1` [Example 489, [6-(3-cyclopropyl-1,2,4-triazol-1-yl)-2-azaspiro[3.3]heptan-2-yl]-[6-[(5-methylsulfonyl-3-pyridyl)methyl]-2-azaspiro[3.3]heptan-2-yl]methanone], 3.28 nM corresponded to half-maximal inhibition (IC50).

`CS(=O)(=O)c1cccc(CC2CC3(C2)CN(C(=O)N2CC4(CC(n5cnc(C6(O)CC6)n5)C4)C2)C3)c1` [Example 490, [6-[3-(1-hydroxycyclopropyl)-1,2,4-triazol-1-yl]-2-azaspiro[3.3]heptan-2-yl]-[6-[(3-methylsulfonylphenyl)methyl]-2-azaspiro[3.3]heptan-2-yl]methanone] yielded an IC50 of 6.69 nM.

On to `CS(=O)(=O)c1ccc(CC2CC3(C2)CN(C(=O)N2CC4(CC(n5cnc(C6(O)CC6)n5)C4)C2)C3)cc1` [Example 491, [6-[3-(1-hydroxycyclopropyl)-1,2,4-triazol-1-yl]-2-azaspiro[3.3]heptan-2-yl]-[6-[(4-methylsulfonylphenyl)methyl]-2-azaspiro[3.3]heptan-2-yl]methanone], for which the IC50 stood at 6.78 nM.

On to `O=C(N1CC(c2ccc(NC3(C(F)(F)F)CC3)nc2)C1)N1CC2(CC(n3cnc(C4(O)CC4)n3)C2)C1` [Example 492, [6-[3-(1-hydroxycyclopropyl)-1,2,4-triazol-1-yl]-2-azaspir[3.3]heptan-2-yl]-[3-[6-[[1-(trifluoromethyl)cyclopropyl]amino]-3-pyridyl]azetidin-1-yl]methanone], for which half-maximal inhibition (IC50) required 11.1 nM. Against the preceding compound, the IC50 is about 1.6-fold higher.
